Test results from US20170042196A1, “USE OF UMAMI COMPOUNDS TO ENHANCE SALTINESS” (Senomyx, Inc., priority 2015, published 2017).

Assays:
Format in all cases: in vivo
[1] = tested on: trained panelists (saltiness perception); test: 2-Alternative Forced Choice human taste test, saltiness in low sodium chicken broth; settings: for Sample selected as saltier by panelists (Total): 55° C.; for saltiness of test sample versus control sample: p<0.1
Procedure: Samples of low sodium chicken broth were prepared and compared using human taste tests. Control samples contained low sodium chicken broth alone. Test samples contained the same low sodium chicken broth to which a specific umami compound was added at a specified concentration. To prepare the test sample, a concentrated stock solution of an umami compound was prepared in ethanol. […] To create the control sample, the chicken broth was balanced with 0.1% ethanol. All samples were served at 55° C. Trained panelists were used to complete the test with three replicates (subject number reported in each table). A 2-Alternative Forced Choice test was used, where panelists received two three-digit blind-coded samples, one control and one test sample, in randomized, counter-balanced order. Panelists tasted samples, rinsing with water between samples, and indicated which of the two samples was […]. The results were analyzed using a binomial distribution with alpha=0.1.

[2] = tested on: trained panelists (saltiness perception); test: Difference from Reference scaling human taste test, saltiness in low sodium chicken broth
Procedure: Samples of low sodium chicken broth were prepared and compared using human taste tests. The reference samples contained low sodium chicken broth alone. The test samples contained the same low sodium chicken broth to which a specific umami compound was added. To prepare the test samples, a concentrated stock solution of an umami compound was prepared in ethanol. The stock solution was added to a commercially available no-MSG added, low sodium chicken broth (Pacific Organic Free Range Chicken Broth Low Sodium), resulting in a final concentration of the umami compound in the test sample with 0.1% ethanol. To create the reference sample, the low sodium chicken broth was balanced with 0.1% ethanol. All samples were served at 55° C. Trained panelists were used to complete the test with two replicates (subject number reported in each table). A Difference from Reference scaling test was used. Panelists received pairs of samples, consisting of the reference sample and a three-digit blind coded sample, which was either the reference sample again (i.e., a negative control), or the test sample containing the compound of interest. Panelists first tasted the reference sample, then rinsed with water and tasted the blind-coded sample. Panelists were asked to score the test sample for differences in saltiness as compared to the reference sample. […] The test also included measurement of other attributes rated on separate scales (e.g., umami intensity, bitterness, and chicken flavor) to ensure responses for saltiness focused solely on that attribute. The order in which panelists received sample pairs containing either the reference or the test sample as the three-digit blind coded sample was randomized and counterbalanced. The results were analyzed using a two-tailed Student's t-test, with alpha=0.1.

[3] = tested on: trained panelists (saltiness perception); test: 2-Alternative Forced Choice human taste test, saltiness in chicken broth (low sodium broth + 100 mM NaCl); settings: for Sample selected as saltier by panelists (Total): 0.1% ethanol, 55° C.; for saltiness of test sample versus control sample: p<0.1
Procedure: Samples of chicken broth were prepared and compared using human taste tests. Control samples contained chicken broth alone. Test samples contained the same chicken broth to which a specific umami compound was added at a specified concentration. To prepare the test sample, a concentrated stock solution of an umami compound was prepared in ethanol. The stock solution was added to a commercially available no-MSG added, low sodium chicken broth (Pacific Organic Free Range Chicken Broth Low Sodium), to which 100 mM NaCl was also added, resulting in a final concentration of the umami compound in the test sample with 0.1% ethanol. To create the control sample, 100 mM NaCl was added to the low sodium chicken broth, and it was balanced with 0.1% ethanol. All samples were served at 55° C. A 2-Alternative Forced Choice test was used, where panelists received two three-digit blind-coded samples, one control and one test sample, in randomized, counter-balanced order. Panelists tasted samples, rinsing with water between samples, and indicated which of the two samples was […]. The results were analyzed using a binomial distribution with alpha=0.1.

## COc1cccc(CNC(=O)C(=O)NCCc2ccccn2)c1OC [Formula (1d)]
[1]; 8 ppm in low sodium chicken broth, 0.1% ethanol, n = 51 (17 panelists × 3 replicates)
  Sample selected as saltier by panelists (Total): 37
[1]; 8 ppm in low sodium chicken broth
  saltiness of test sample versus control sample: significantly saltier
[2]; 8 ppm in low sodium chicken broth, 11-point scale −5 to +5, n = 30 (15 panelists × 2 replicates)
  Average Saltiness Score of Test Sample as compared to Reference Sample: 0.8
[2]; 8 ppm in low sodium chicken broth, p<0.1
  saltiness of test sample versus reference sample: significantly saltier
[3]; 8 ppm in chicken broth (100 mM NaCl added), n = 48 (16 panelists × 3 replicates)
  Sample selected as saltier by panelists (Total): 31
[3]; 8 ppm in chicken broth (100 mM NaCl added)
  saltiness of test sample versus control sample: significantly saltier

## COc1cccc(-c2n[nH]c(SCc3ccccn3)n2)c1OC [Formula (1b)]
[1]; 5 ppm in low sodium chicken broth, 0.1% ethanol, n = 48 (16 panelists × 3 replicates)
  Sample selected as saltier by panelists (Total): 33
[1]; 5 ppm in low sodium chicken broth
  saltiness of test sample versus control sample: significantly saltier
[2]; 5 ppm in low sodium chicken broth, 11-point scale −5 to +5, n = 24 (12 panelists × 2 replicates)
  Average Saltiness Score of Test Sample as compared to Reference Sample: 0.7
[2]; 5 ppm in low sodium chicken broth, p<0.1
  saltiness of test sample versus reference sample: significantly saltier

## COc1cc(C)ccc1CNC(=O)C(=O)NCCc1ccccn1 [Formula (1c)]
[1]; 1 ppm in low sodium chicken broth, 0.1% ethanol, n = 48 (16 panelists × 3 replicates)
  Sample selected as saltier by panelists (Total): 36
[1]; 1 ppm in low sodium chicken broth
  saltiness of test sample versus control sample: significantly saltier
[3]; 1 ppm in chicken broth (100 mM NaCl added), n = 51 (17 panelists × 3 replicates)
  Sample selected as saltier by panelists (Total): 33
[3]; 1 ppm in chicken broth (100 mM NaCl added)
  saltiness of test sample versus control sample: significantly saltier

## COc1cc(C)ccc1CNC(=O)C(=O)NCCc1ccc(C)cn1 [Formula (1f)]
[2]; 1 ppm in low sodium chicken broth, 11-point scale −5 to +5, n = 26 (13 panelists × 2 replicates)
  Average Saltiness Score of Test Sample as compared to Reference Sample: 1.0
[2]; 1 ppm in low sodium chicken broth, n = 26, p<0.1
  saltiness of test sample versus reference sample: significantly saltier
[3]; 2 ppm Formula (1f) in chicken broth (100 mM NaCl added), n = 48 (16 panelists × 3 replicates)
  Sample selected as saltier by panelists (Total): 32
[3]; 2 ppm Formula (1f) in chicken broth (100 mM NaCl added)
  saltiness of test sample versus control sample: significantly saltier

## CCCC(CCC)NC(=O)c1ccc2c(c1)OCO2 [Formula (1a)]
[1]; 2 ppm in low sodium chicken broth, 0.05% ethanol, n = 48 (16 panelists × 3 replicates)
  Sample selected as saltier by panelists (Total): 35
[1]; 2 ppm in low sodium chicken broth
  saltiness of test sample versus control sample: significantly saltier
[3]; 2 ppm in chicken broth (100 mM NaCl added), n = 48 (16 panelists × 3 replicates)
  Sample selected as saltier by panelists (Total): 31
[3]; 2 ppm in chicken broth (100 mM NaCl added)
  saltiness of test sample versus control sample: significantly saltier

## COc1ccc(CNC(=O)C(=O)NCCc2ccccn2)c(OC)c1 [Formula (1g)]
[2]; 1 ppm in low sodium chicken broth, 11-point scale −5 to +5, n = 30 (15 panelists × 2 replicates)
  Average Saltiness Score of Test Sample as compared to Reference Sample: 0.5
[2]; 1 ppm in low sodium chicken broth, n = 30, p<0.1
  saltiness of test sample versus reference sample: significantly saltier

## COC[C@@H](CC(C)C)NC(=O)c1ccc(C)c(C)c1 [Formula (1e)]
[1]; 2 ppm in low sodium chicken broth, 0.1% ethanol, n = 51 (17 panelists × 3 replicates)
  Sample selected as saltier by panelists (Total): 32
[1]; 2 ppm in low sodium chicken broth, 0.1% ethanol
  saltiness of test sample versus control sample: significantly saltier
[2]; 2 ppm in low sodium chicken broth, 11-point scale −5 to +5, n = 30 (15 panelists × 2 replicates)
  Average Saltiness Score of Test Sample as compared to Reference Sample: 0.5
[2]; 2 ppm in low sodium chicken broth, p<0.1
  saltiness of test sample versus reference sample: significantly saltier
